Where two headings read alike, the source gives them in different places.
Experiments:
human D2R = human D2R (Homo sapiens (Human), UniProt P14416); assay: Radioligand competition binding, [3H]N-methylspiperone, HEK293 membranes expressing human D2R; conditions: read-out: D2R Ki ± SEM
Description: (§1) Binding at dopamine D2-like receptors was determined using previously described methods. […] Upon reaching 80-90% confluence, cells were harvested using pre-mixed Earle's Balanced Salt Solution (EBSS) with […] EDTA (Life Technologies) and centrifuged at 3000 rpm for 10 min at 21° C. The supernatant was removed and the pellet was resuspended in 10 mL hypotonic lysis buffer (5 mM MgCl2.6H2O, 5 mM Tris, pH 7.4 at 4° C.) and centrifuged at 20,000 rpm for 30 min at 4° C. The pellet was then resuspended in fresh EBSS buffer made from 8.7 g/L Earle's Balanced Salts without phenol red (US Biological, Salem, Mass.), 2.2 g/L sodium bicarbonate, pH to 7.4. A Bradford protein assay (Bio-Rad, Hercules, Calif.) was used to determine the protein concentration and membranes were diluted to 500 μg/mL and stored in a −80° C. freezer for later use.
(§2) Radioligand competition binding experiments were conducted using thawed membranes. Test compounds were freshly dissolved in 30% DMSO and 70% H2O to a stock concentration of 100 μM. To assist the solubilization of free-base compounds, 10 μl of glacial acetic acid was added along with the DMSO. Each test compound was then diluted into 13 half-log serial dilutions using 30% DMSO vehicle; final test concentrations ranged from 10 μM to 10 pM. Previously frozen membranes were diluted in fresh EBSS to a 100 μg/mL (for hD2R or hD3R) or 200 μg/mL (hD4R) stock for binding. […] buffer with 0.2 mM sodium metabisulfite, 50 μl of diluted test compound, 100 μl of membranes (10 μg total protein for hD2R or hD3R, 20 μg total protein for hD4R), and 50 μl of [^3H]N-methylspiperone (0.4 nM final concentration; Perkin Elmer). Nonspecific binding was determined using 10 μM butaclamol (Sigma-Aldrich, St. Louis, Mo.) and total binding was determined with 30% DMSO vehicle. All compound dilutions were tested in triplicate and the reaction incubated for one hour at room temperature. The reaction was terminated by filtration through Whatman GF/B filters, presoaked for one hour in 0.5% polyethylenimine, using a Brandel R48 filtering manifold (Brandel Instruments, Gaithersburg, Md.). The filters were washed 3 times with 3 mL of ice cold EBSS buffer and transferred to scintillation vials. […] IC50 values for each compound were determined from dose-response curves and Ki values were calculated using the Cheng-Prusoff equation; these analyses were performed using GraphPad Prism version 5.00 for Windows (GraphPad Software, San Diego, Calif.). Reported Ki values were determined from least three independent experiments.
(§3) The binding affinities of the compounds were evaluated by performing competition binding studies with [^3H]N-methylspiperone using membranes prepared from HEK293 cells expressing either the human D2R or D3R.

human D3R = human D3R (Homo sapiens (Human), UniProt P35462); assay: Radioligand competition binding, [3H]N-methylspiperone, HEK293 membranes expressing human D3R; conditions: for Ki: read-out: D3R Ki ± SEM; for D2/D3: ratio of Ki values
Description: as §1, §2, §3

human D4R = human D4R (Homo sapiens (Human), UniProt P21917); assay: Radioligand competition binding, [3H]N-methylspiperone, HEK293 membranes expressing human D4R; conditions: Table 1A; for Ki: [3H]N-methylspiperone, read-out: D4R Ki ± SEM; for D4/D2 / D4/D3: ratio of Ki values
Description: Binding at dopamine D2-like receptors was determined using previously described methods. (Chen et al. “Tranylcypromine substituted cis-hydroxycyclobutylnaphthamides as potent and selective dopamine D(3) receptor antagonists.” J. Med. Chem. 2014, 57, 4962-4968) Membranes were prepared from HEK293 cells expressing human D2R, D3R or D4R, grown in a 50:50 mix of DMEM and Ham's F12 culture media, supplemented with 20 mM HEPES, 2 mM L-glutamine, 0.1 mM non-essential amino acids, 1× antibiotic/antimycotic, 10% heat-inactivated fetal bovine serum, and 200 μg/mL hygromycin (Life Technologies, Grand Island, N.Y.) and kept in an incubator at 37° C. and 5% CO2. Upon reaching 80-90% confluence, cells were harvested using pre-mixed Earle's Balanced Salt Solution (EBSS) with […] EDTA (Life Technologies) and centrifuged at 3000 rpm for 10 min at 21° C. The supernatant was removed and the pellet was resuspended in 10 mL hypotonic lysis buffer (5 mM MgCl2.6H2O, 5 mM Tris, pH 7.4 at 4° C.) and centrifuged at 20,000 rpm for 30 min at 4° C. The pellet was then resuspended in fresh EBSS buffer made from 8.7 g/L Earle's Balanced Salts without phenol red (US Biological, Salem, Mass.), 2.2 g/L sodium bicarbonate, pH to 7.4. A Bradford protein assay (Bio-Rad, Hercules, Calif.) was used to determine the protein concentration and membranes were diluted to 500 μg/mL and stored in a −80° C. freezer for later use.
Radioligand competition binding experiments were conducted using thawed membranes. Test compounds were freshly dissolved in 30% DMSO and 70% H2O to a stock concentration of 100 μM. To assist the solubilization of free-base compounds, 10 μl of glacial acetic acid was added along with the DMSO. Each test compound was then diluted into 13 half-log serial dilutions using 30% DMSO vehicle; final test concentrations ranged from 10 μM to 10 pM. Previously frozen membranes were diluted in fresh EBSS to a 100 μg/mL (for hD2R or hD3R) or 200 μg/mL (hD4R) stock for binding. Radioligand competition experiments were conducted in glass tubes containing 300 μl fresh EBSS buffer with 0.2 mM sodium metabisulfite, 50 μl of diluted test compound, 100 μl of membranes (10 μg total protein for hD2R or hD3R, 20 μg total protein for hD4R), and 50 μl of [^3H]N-methylspiperone (0.4 nM final concentration; Perkin Elmer). Nonspecific binding was determined using 10 μM butaclamol (Sigma-Aldrich, St. Louis, Mo.) and total binding was determined with 30% DMSO vehicle. All compound dilutions were tested in triplicate and the reaction incubated for one hour at room temperature. The reaction was terminated by filtration through Whatman GF/B filters, presoaked for one hour in 0.5% polyethylenimine, using a Brandel R48 filtering manifold (Brandel Instruments, Gaithersburg, Md.). The filters were washed 3 times with 3 mL of ice cold EBSS buffer and transferred to scintillation vials. 3 mL CytoScint liquid scintillation cocktail (MP Biomedicals, Solon, Ohio) was added and vials were counted using a Perkin Elmer Tri-Carb 2910 TR liquid scintillation counter (Waltham, Mass.). IC50 values for each compound were determined from dose-response curves and Ki values were calculated using the Cheng-Prusoff equation; these analyses were performed using GraphPad Prism version 5.00 for Windows (GraphPad Software, San Diego, Calif.). Reported Ki values were determined from least three independent experiments.

[1] = Table 1A, HEK 293 cells transfected with hD2LR, [3H]N-methylspiperone
[2] = Table 1A, HEK 293 cells transfected with hD3R, [3H]N-methylspiperone

Sequence of human D4R (P21917 whole entry): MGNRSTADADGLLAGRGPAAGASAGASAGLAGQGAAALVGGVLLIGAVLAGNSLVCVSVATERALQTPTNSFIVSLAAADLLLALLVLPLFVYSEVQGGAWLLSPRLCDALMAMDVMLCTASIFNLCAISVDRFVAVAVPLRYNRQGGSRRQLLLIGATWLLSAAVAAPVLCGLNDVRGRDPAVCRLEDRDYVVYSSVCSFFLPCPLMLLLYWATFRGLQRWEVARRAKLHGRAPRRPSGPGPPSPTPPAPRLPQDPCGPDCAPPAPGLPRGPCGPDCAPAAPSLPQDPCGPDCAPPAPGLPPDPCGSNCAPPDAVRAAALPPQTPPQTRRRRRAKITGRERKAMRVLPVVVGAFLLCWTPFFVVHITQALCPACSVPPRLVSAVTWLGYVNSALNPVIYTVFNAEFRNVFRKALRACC
Sequence of human D3R (P35462 whole entry): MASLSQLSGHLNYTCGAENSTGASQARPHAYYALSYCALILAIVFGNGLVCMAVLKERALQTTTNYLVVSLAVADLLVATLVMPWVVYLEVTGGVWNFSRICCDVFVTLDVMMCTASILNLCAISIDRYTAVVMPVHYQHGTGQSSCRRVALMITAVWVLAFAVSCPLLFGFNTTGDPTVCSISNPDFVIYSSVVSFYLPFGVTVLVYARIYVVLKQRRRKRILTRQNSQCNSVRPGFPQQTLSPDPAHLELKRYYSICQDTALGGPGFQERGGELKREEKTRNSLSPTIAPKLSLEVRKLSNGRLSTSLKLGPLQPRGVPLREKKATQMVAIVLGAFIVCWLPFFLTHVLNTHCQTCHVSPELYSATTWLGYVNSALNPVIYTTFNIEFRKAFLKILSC
Sequence of human D2R (P14416 whole entry): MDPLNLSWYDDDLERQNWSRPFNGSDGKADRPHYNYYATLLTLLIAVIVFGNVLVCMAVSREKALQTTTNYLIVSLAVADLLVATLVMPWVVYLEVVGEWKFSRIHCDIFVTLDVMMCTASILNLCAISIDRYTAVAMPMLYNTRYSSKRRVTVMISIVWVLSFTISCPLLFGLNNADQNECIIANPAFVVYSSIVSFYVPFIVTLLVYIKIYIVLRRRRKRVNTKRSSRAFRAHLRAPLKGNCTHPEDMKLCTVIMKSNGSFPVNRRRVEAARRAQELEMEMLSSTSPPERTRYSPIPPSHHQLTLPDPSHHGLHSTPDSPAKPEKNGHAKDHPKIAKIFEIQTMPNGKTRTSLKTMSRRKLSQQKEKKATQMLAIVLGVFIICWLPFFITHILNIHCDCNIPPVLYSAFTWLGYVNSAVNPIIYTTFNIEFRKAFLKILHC

Compound	Ki (human D2R; [1])	Ki (human D3R; [2])	D2/D3 (human D3R; Table 1A)	Ki (human D4R)	D4/D2 (human D4R)	D4/D3 (human D4R)	Ki (human D2R; Table 1C)	D3R selectivity over D2R (D2R/D3R) (human D3R)	D2/D3 (human D3R; Table 1C)	Ki (human D3R; Table 1C)
CCc1cccc(N2CCN(CCCCNC(=O)c3nc(C)c[nH]3)CC2)c1Cl [Compound 26, N-(4-(4-(2-Chloro-3-ethylphenyl)piperazin-1-yl)butyl)-4-methyl-1H-imidazole-2-carboxamide]	12.2 ± 2.58 nM	0.62 ± 0.096 nM	19.7	529 ± 42.3 nM	43.4	853	–	–	–	–
CCc1cc(Cl)c(OC)c(N2CCN(CC(O)CCNC(=O)c3ccc4c(c3)OCO4)CC2)c1 (stereo not shown) [Compound 113a, N-(4-(4-(3-Chloro-5-ethyl-2-methoxyphenyl)piperazin-1-yl)-3-hydroxybutyl)benzo[d][1,3]dioxole-5-carboxamide]	–	–	–	–	–	–	364 ± 101 nM	–	15	24.5 ± 4.44 nM
CCc1c[nH]c(C(=O)NCCCCN2CCN(c3cccc(CC)c3Cl)CC2)n1 [Compound 25, N-(4-(4-(2-Chloro-3-ethylphenyl)piperazin-1-yl)butyl)-4-ethyl-1H-imidazole-2-carboxamide]	12.5 ± 1.07 nM	1.14 ± 0.17 nM	11.0	500 ± 30.9 nM	40.0	439	–	–	–	–
CCc1cccc(N2CCN(CCCCNC(=O)c3cn4ccccc4n3)CC2)c1Cl [Compound 22, N-(4-(4-(2-chloro-3-ethylphenyl)piperazin-1-yl)butyl)imidazo[1,2-a]pyridine-2-carboxamide]	5.64 ± 0.98 nM	0.33 ± 0.085 nM	17.1	819 ± 175 nM	145.2	2482	–	–	–	–
CCc1cccc(N2CCN(CCCCNC(=O)c3c(C)nc4sccn34)CC2)c1Cl [Compound 24, N-(4-(4-(2-chloro-3-ethylphenyl)piperazin-1-yl)butyl)-6-methylimidazo[2,1-b]thiazole-5-carboxamide]	4.65 ± 1.24 nM	0.94 ± 0.13 nM	4.9	143 ± 3.18 nM	30.8	152	–	–	–	–
CCc1cc2c(cc1N1CCN(CC(O)CCNC(=O)c3cc4ccccc4o3)CC1)OCO2 (stereo not shown) [Compound 122, N-(4-(4-(6-Ethylbenzo[d][1,3]dioxol-5-yl)piperazin-1-yl)-3-hydroxybutyl)benzofuran-2-carboxamide]	–	–	–	–	–	–	1440 ± 48.8 nM	–	61	23.6 ± 7.35 nM

Now from value to molecule:

Ki (human D2R; [1])	Ki (human D3R; [2])	D2/D3 (human D3R; Table 1A)	Ki (human D4R)	D4/D2 (human D4R)	D4/D3 (human D4R)	Ki (human D2R; Table 1C)	D3R selectivity over D2R (D2R/D3R) (human D3R)	D2/D3 (human D3R; Table 1C)	Ki (human D3R; Table 1C)	Compound
–	–	–	–	–	–	21400 ± 1500 nM	1650 fold	1646	13 ± 2.94 nM	CCc1cc(Cl)c(OC)c(N2CCN(C[C@H](F)CCNC(=O)c3cc4ccccc4[nH]3)CC2)c1 [(R)-C4a, (R)-N-(4-(4-(3-chloro-5-ethyl-2-methoxyphenyl)piperazin-1-yl)-3-fluorobutyl)-1H-indole-2-carboxamide]
–	–	–	–	–	–	424 ± 79.9 nM	–	140	3.02 ± 0.742 nM	CCc1cccc(N2CCN(CC(O)CCNC(=O)c3ccc4c(c3)OCO4)CC2)c1Cl (stereo not shown) [Compound 113b, N-(4-(4-(2-Chloro-3-ethylphenyl)piperazin-1-yl)-3-hydroxybutyl)benzo[d 1,3]dioxole-5-carboxamide]
16.1 ± 1.2 nM	1.28 ± 0.22 nM	12.6	503 ± 157 nM	31.2	393	–	–	–	–	CCc1cccc(N2CCN(C/C=C/CNC(=O)c3nc(C)c[nH]3)CC2)c1Cl [Compound 35, (E)-N-(4-(4-(2-Chloro-3-ethylphenyl)piperazin-1-yl)but-2-en-1-yl)-4-methyl-1H-imidazole-2-carboxamide]
193 ± 40.5 nM	4.23 ± 0.84 nM	45.6	11300 nM	58.5	2671	–	–	–	–	CCc1cccc(N2CCN(CC(O)CCNC(=O)c3cn4ccccc4n3)CC2)c1Cl (stereo not shown) [Compound 23, N-(4-(4-(2-Chloro-3-ethylphenyl)piperazin-1-yl)-3-hydroxybutyl)imidazo[1,2-a]pyridine-2-carboxamide]
–	–	–	–	–	–	18900 ± 2720 nM	535 fold	535	35.3 nM	CCc1cc(Cl)c(OC)c(N2CCN(C[C@@H](F)CCNC(=O)c3cc4ccccc4[nH]3)CC2)c1 [(S)-C4a, (S)-N-(4-(4-(3-chloro-5-ethyl-2-methoxyphenyl)piperazin-1-yl)-3-fluorobutyl)-1H-indole-2-carboxamidec]
6.83 ± 0.53 nM	0.2 ± 0.018 nM	34.2	305 ± 70.5 nM	44.7	1525	–	–	–	–	CCc1cccc(N2CCN(CCC(O)CNC(=O)c3cc4ccccc4[nH]3)CC2)c1Cl (stereo not shown) [Compound 40, N-(4-(4-(2-Chloro-3-ethylphenyl)piperazin-1-yl)-2-hydroxybutyl)-1H-indole-2-carboxamide]
150 ± 13.1 nM	11.2 ± 2.66 nM	13.4	1960 ± 344 nM	13.1	175	–	–	–	–	CCc1cccc(N2CCN(CC(O)CCNC(=O)c3nc(C)c[nH]3)CC2)c1Cl (stereo not shown) [Compound 27, N-(4-(4-(2-Chloro-3-ethylphenyl)piperazin-1-yl)-3-hydroxybutyl)-4-methyl-1H-imidazole-2-carboxamide]
–	–	–	–	–	–	891 ± 305 nM	> 1000 fold	1060	0.84 nM	CCc1cccc(N2CCN(C[C@@H](F)CCNC(=O)c3cc4ccccc4[nH]3)CC2)c1Cl [(S)-C5a, (S)-N-(4-(4-(2-chloro-3-ethylphenyl)piperazin-1-yl)-3-fluorobutyl)-1H-indole-2-carboxamide]
–	–	–	–	–	–	80.2 ± 13.8 nM	215 fold	215	0.373 nM	CCc1cccc(N2CCN(C[C@H](F)CCNC(=O)c3cc4ccccc4[nH]3)CC2)c1Cl [(R)-C5a, (R)-N-(4-(4-(2-chloro-3-ethylphenyl)piperazin-1-yl)-3-fluorobutyl)-1H-indole-2-carboxamide]

From patent US11337971B2, “Dopamine D3 receptor selective antagonists/partial agonists and uses thereof” (THE UNITED STATES OF AMERICA, AS REPRESENTED BY THE …, priority 2018, dated 2022)
